Laboratory results reported in patent publication EP1543832A2, “Use of trans-4[4-(3-chloro-4-methoxy-benzylamino) benzothieno[2,3-d]pyrimidin-2-yl]-cyclohexanecarboxylic acid in the treatment of extrapyramidal movement disorders” (MERCK PATENT GmbH, priority 2003, dated 2005).

What was measured:
[1] = system: striatonigral degeneration approach in the rat; test: Striatonigral degeneration model (6-hydroxydopamine plus quinolinic acid), turning behavior; format: in vivo; conditions: automated recorder
Description: Another more recent animal model is the striatonigral degeneration approach in the rat according to G.K. Wenning et al., J. Neural Transm. Suppl., 1999; 55: 103-113. Rats receive an unilateral injection of 6-hydroxydopamine into the left medial forebrain bundle followed by an injection of quinolinic acid into the ipsilateral striatum inducing nigrostriatal degeneration. The degeneration results in turning behavior to a challenge with dopaminomimetics such as apomorphine or amphetamine. Turning behavior is measured by an automated recorder.

[2] = system: neuroleptics-induced muscle rigidity in rats; test: Neuroleptics-induced muscle rigidity (haloperidol challenge); format: in vivo; conditions: resistance to passive flexion and extension of the hind limb
Description: A typical animal model is neuroleptics-induced muscle rigidity in rats according to S. Wolfarth et al., Arch. Pharmacol. 1992; 345: 209-212. Rats are challenged with the conventional neuroleptic drug haloperidol which enhances muscle tone. Muscle tone is electromechanically measured as the resistence to passive flexion and extension of the hind limb. Trans-4-[4-(3-chloro-4-methoxybenzylamino)-benzothieno-[2,3-d]pyrimidin-2-yl]cyclo-hexanecarboxylic acid or a physiologically acceptable salt thereof thereof decrease the mucle tone enhanced by haloperidol.

[3] = system: systemic 3-nitropropionic acid (3-NP) model in rats; test: Systemic 3-nitropropionic acid (3-NP) model, nocturnal activity; format: in vivo
Procedure: A typical animal model is the systemic 3-nitropropionic acid (3-NP) model in rats according to C.V. Borlongan et al., Brain Res., 1995; 697: 254-257. Rats are treated with injections of the selective striatal neurotoxin 3-NP i.p. every fourth day (C.V. Borlongan et al., Brain Res. Protocols, 1997; 1: 253-257). After two injections of 3-NP, rats display nocturnal hyperactivity reflecting symptoms of early Huntington's disease, whereas rats treated with four injections of 3-NP display nocturnal akinesia (hypoactivity) reflecting symptoms of late Huntington's disease. Nocturnal activity is automatically measured in conventional acitivity cages by infrared beams. Trans-4-[4-(3-chloro-4-methoxybenzylamino)-benzothieno-[2,3-d]pyrimidin-2-yl]cyclohexanecarboxylic acid or a physiologically acceptable salt thereof reduce both the nocturnal hyperactivity and akinesia.

[4] = system: neuroleptics sensitized monkey; test: Neuroleptics sensitized monkey, haloperidol challenge; format: in vivo; conditions: given after haloperidol challenge; scoring system
Description: Another typical animal model is the neuroleptics sensitized monkey according to D.E. Casey, Psychopharmacology, 1996; 124: 134-140. Monkeys treated repeatedly with conventional neuroleptics are highly sensitive to a subsequent challenge dose of neuroleptic drugs. When challenged, the monkeys immediately show extrapyramidal motor side effects such as dystonia, dyskinesias, akathisia, and bradykinesia which are rated by a scoring system. The conventional neuroleptic drug haloperidol is given as a challenge.

[5] = system: catalepsy induced by conventional antidopaminergic drugs; test: Catalepsy induced by conventional antidopaminergic drugs such as haloperidol; conditions: rat, in vivo
Procedure: (§1) Extrapyramidal motor side effects in e.g. rodents are measured by the ability of a drug to induce catalepsy. Catalepsy is defined as a state where an animal continues to remain in an unnormal (nonphysiological 'uncomfortable') posture for a long time (e.g.: M.E. Stanley and S.D. Glick, Neuropharmacology, 1996; 15: 393-394; C.J.E. Niemegeers and P. Janssen, Life Sci., 1979, […]). For example, if a hindpaw of a rat is placed on an elevated level, e.g. a platform elevated 3 cm above ground level, a normal rat immediately withdraws the hindpaw from the platform to the ground level. A cataleptic rat remains in this unnatural posture even for minutes.

[6] = system: catalepsy; test: Ability of a drug to induce catalepsy (extrapyramidal motor side effects); format: in vivo, rat; conditions: measured in e.g. rodents by the ability of a drug to induce catalepsy
Procedure: as §1

With `COc1ccc(CNc2nc([C@H]3CC[C@H](C(=O)O)CC3)nc3sc4ccccc4c23)cc1Cl` [trans-4-[4-(3-chloro-4-methoxybenzylamino)-benzothieno-[2,3-d]pyrimidin-2-yl]cyclohexanecarboxylic acid] the “Turning behavior induced by apomorphine or amphetamine” value [1] was “dose-dependently antagonized”, the “muscle tone enhanced by haloperidol” value [2] was “decrease” and the nocturnal akinesia ([3]; after four injections of 3-NP (late Huntington's disease)) was “reduce”. For the same compound, the nocturnal hyperactivity ([3]; after two injections of 3-NP (early Huntington's disease)) was “reduce”, the “extrapyramidal motor side effects” value [4] was “dose-dependently reduce” and the “prevention of catalepsy induced by conventional antidopaminergic drugs” value [5] was “able to prevent catalepsy”. For the same compound, the “reversal of already existing catalepsy induced by conventional antidopaminergic drugs such as haloperidol” value [5] was “reverses already existing catalepsy” and the “liability to induce extrapyramidal side effects” value [6] was “extremely low liability to induce extrapyramidal side effects”.
